Experiments:
9 epidermal tone genes [1] = experiment: Endogenously driven ex-vivo human skin tissue, transcription of epidermal tone genes vs untreated control; type: cell-based; details: for # Genes (out of 9) with p ≦ 0.1: endogenously driven tissue sample, 37° C. and 70% humidity, epidermal genes regulated vs untreated control, 2-10 experiments each
Procedure: Referring to FIGS. 11 to 15, examples are shown for the regulation of the 9 epidermal tone genes against an untreated control in an endogenously driven ex-vivo tissue system at 37° C. and 70% humidity for niacinamide, hexamidine, N-Acetyl glucosamine, kojic acid, tranexamic acid, and undecylenoyl phenylalanine (2-10 experiments each). […] For instance, out of the 9 epidermal genes, at least one compound (Hexamidine) regulated 9 genes (with a statistical significance of p<0.1 or better) while two compounds regulated 5 or fewer genes (with a p<0.1 or better). Table 1 below summarizes the number of epidermal genes regulated by certain materials in an endogenously driven tissue sample with a statistical significance of p≦0.1.
Culturing involved setting up culture plates: putting 2.5 ml of media or treatment into each well of a 6-well tissue plate, adding one Millicell culture insert to each well, and putting 100 μl of 1×DMEM on the center of each insert membrane. Squares were selected randomly placed into each of the inserts (one piece of skin per insert), on top of the media on the membrane. The plates were stored at either 33° C. (though an additional non-limiting example would be 37° C. depending on the experiment endpoint). As a control, baseline tissue measurements were collected from excess waste (cryogenics were used for snap freezing). Baseline biopsy collection involved two 4 mm punches for MTT; One 4 mm punch was snap frozen in OCT for fresh histology; One 4 mm punch was fixed in 10% formalin and sent out for paraffin embedding. PCR baseline was also be taken with six 4 mm punches snap frozen in liquid nitrogen.
Culture and treatment of the model comprised replicates of n=5 (though replicates of additional quantities may be used such as n=6). Media Dosing of skin involved solubilizing used in appropriate solvents (including PBS, Media, alcohol, and DMSO; in using DMSO, the final concentration in the plate was restricted to 0.01%). Appropriate dilutions were made for treatment: 15 ml of media were required per plate per day for treatment, with 2.5 ml of media required per well under the cell culture insert. Media was pre-warmed and changed every day during the experiment.
Skin was topically dosed. To do so, formulation for a compound of interest was obtained. Variation was minimized by having a vehicle that was as close to test formula as possible (making sure glycerin concentration was the same, determining if there was a vitamin package in the formula, determining if there was niacimamide; all of these were the same between the vehicle control formula and the test formula) (in ideal embodiments, the only difference is the unknown test compound). The skin was treated using a positive displacement pipette with 20 ul of formulation. A sterile cotton swab was used after application to spread and rub in the formula. Media was changed every day. The media was aspirated and replaced with fresh warmed media at a level of 2.5 ml per well.
For cryopreparation and extraction the following equipment was obtained and prepared: 2 ml round bottom tubes were prepared with 1 ml of TRIZOL as was a 5 mm stainless steel bead for each sample; a dry ice bucket was obtained and liquid nitrogen was placed in the bucket. Biopsy punches were maintained on dry ice, and samples remained frozen. Cryobags and covaris cryoprep were used in freeze fracturing of samples. To freeze fracture the samples, biopsies were placed in a cryo bag (2 per sample) and dipped in liquid nitrogen, then placed in cryoprep (setting 4). The sample bag was taken out and dipped back into nitrogen. A flattened disk was removed and placed into corresponding 2 ml tubes with TRIZOL. The disk was kept frozen in the TRIZOL. The tube was closed and snap frozen, and the whole tube was placed in liquid nitrogen. After repeating the process with all the samples, samples were placed into boxes and stored at −80 until the next step. […]

9 epidermal tone genes [2] = experiment: Stem Cell Factor/Endothelin 1 driven ex-vivo human skin tissue, transcription of epidermal tone genes vs untreated control; type: cell-based; details: Stem Cell Factor/Endothelin 1 driven tissue sample; 37° C. and 70% humidity; out of 9 epidermal genes; 2-10 experiments each
Procedure: Referring to FIGS. 19 to 23, examples (of 2-10 experiments each) are shown for the regulation of the 9 epidermal tone genes against an untreated control in ex-vivo tissue driven by the combination of Stem Cell Factor and Endothelin at 37° C. and 70% humidity for niacinamide, hexamidine, N-Acetyl glucosamine, kojic acid, tranexamic acid, and undecylenoyl phenylalanine. […] For instance, out of the 9 epidermal genes, at least one compound (undecylenoyl phenylalanine) regulated 5 genes (with a statistical significance of p<0.1 or better) while two compounds regulated 2 or fewer genes (with a p<0.1 or better). Table 2 below summarizes the number of epidermal genes regulated by certain materials in a Stem Cell Factor/Endothelin 1 driven tissue sample with a statistical significance of p≦0.1.
In example embodiments, tone is driven by application of stem cell factor and/or endothelin (with skin preparation, culturing, and mRNA processing being completed as previously described). In an example embodiment, skin samples are placed within 6-well plates, with 2.5 ml of media per well. A concentration of eighty nanograms per milliliter of stem cell factor as well as eighty nanograms per milliliter of endothelin was applied to tissue in the wells, with the media being refreshed daily. The culture was maintained for seven days. Inhibitors of tone-related genes were applied; hexamidine and undecylenoyl phenylalanine were applied topically and daily in vehicles at 0.1% and 0.25%, respectively.

tone genes = experiment: Human Ex-vivo Pre-Clinical Model, fold regulation of tone genes by clinical formulations; type: cell-based; details: FIGS. 25a and 25b
Procedure: FIGS. 25a and 25b show two respective tables showing ex-vivo model fold regulation changes indicating significant down-regulation by clinical formulations in the Human Ex-vivo Pre-Clinical Model.
(§1) The ex-vivo screening method has provided identification of agents consistent with in-vitro studies and which have proven positive clinically. One such example is hexyldecanol. […] For example, total melanin assays were performed using a rat melanoma line known to produce melanin. […] Therefore, promising tone agents such as hexyldecanol identified from the in-vitro model and the ex-vivo model have been tested in clinical settings.

[3] = system: rat melanoma line known to produce melanin; experiment: Total melanin assay in melanoma cell line; type: cell-based; details: rat melanoma cell cultures
Procedure: as §1

[4] = system: facial skin pigmentation (spots, melanin evenness); experiment: 9-week clinical study, randomized, double-blind, vehicle-controlled, split-face; type: in vivo, human; details: 9-week study
Source text: For example, hexyldecanol was compared to vehicle controls and positive controls (5% Niacinamide+1% undecylenoyl phenylalanine) through a 9-week period. Specifically the trial included a 9-week clinical study with a randomized, double-blind, round robin, vehicle-controlled, split-face design, including one week normalization period whereby 330 subjects received test product.

tone genes of interest = experiment: Ex-vivo tissue culture exposed to compounds known to stimulate the pigmentation pathway, tone gene regulation; type: cell-based, human; details: p≦0.1, minimum of 2-10 experiments each, FIG. 16

| Compound | # Genes (out of 9) with p ≦ 0.1 (9 epidermal tone genes [1]) | # of Genes with p ≦ 0.1 (9 epidermal tone genes [2]) | also measured |
| --- | --- | --- | --- |
| N=C(N)c1ccc(OCCCCCCOc2ccc(C(=N)N)cc2)cc1 [Hexamidine, hexamidine] | 9 | 4 | – |
| CCCCCCCCC(CO)CCCCCC (centres unmarked) [Hexyldecanol, hexyldecanol] | – | – | Ex-vivo model gene regulation (tone genes): down-regulation; Total melanin produced as compared to controls [3]: decreased; Overall clinical outcome vs vehicle ([4]; 330 subjects, significant if p<0.10 (1-sided) vs. vehicle): statistically better than vehicle controls; Melanin evenness ([4]; versus the vehicle control): significantly different from controls; Spot area fraction (total area of spots per face) ([4]; versus vehicle control group): significantly different from controls |
| O=c1cc(CO)occ1O [Kojic Acid, kojic acid] | 5 | 2 | – |
| CC(=O)N[C@H]1C(O)O[C@H](CO)[C@@H](O)[C@@H]1O (some centres unmarked) [NAG, N-Acetyl glucosamine] | 6 | 1 | – |
| NC(=O)c1cccnc1 [Niacinamide, niacinamide] | 7 | 3 | Down-regulation of tone genes by donor Fitzpatrick type (9 epidermal tone genes [1]; 5% niacinamide, Fitzpatrick V donor vs two Fitzpatrick III donors, FIG. 1): more challenging to down-regulate |
| C=CCCCCCCCCC(=O)N[C@@H](Cc1ccccc1)C(=O)O [Undecylenoyl phenylalanine, undecylenoyl phenylalanine] | 3 | 5 | – |
| Stem Cell Factor: compound known to stimulate the pigmentation pathway; paracrine agent | – | – | Regulation of tone genes of interest (tone genes of interest): up regulate one or more tone genes of interest |
| tranexamic acid | 7 | 3 | – |
| α-MSH | – | – | Regulation of tone genes of interest (tone genes of interest): up regulate one or more tone genes of interest |
